Assay results published in patent US20030013660A1, “Dioxolane analogs for improved inter-cellular delivery” (Shire BioChem Inc., priority 2000, published 2003).
Read-outs that look alike come from different tables or passages of the source.

Experiments:
Assay in all cases: 3H-TdR (3H-thymidine) incorporation assay at 72 hr
[1] = tested on: H-460; format: cell-based, Human
[2] = tested on: MCF-7; format: cell-based, Human
[3] = tested on: SF-268; format: cell-based, Human
[4] = tested on: CCRF-CEM; format: cell-based
Protocol: (§1) Table of IC50 Values (μM) for Controls
(§2) Exposition of 24 hr to drug, wash, incubated for another 48 hr (total of 72 hr assay)
(§3) (3H-Thymidine Incorporation Assay)

[5] = tested on: CEM/dCK-; format: cell-based; conditions: for IC50: Homo sapiens, CCRF-CEM; for Factor* (Resistance Factor = Ratio of dCK- on Wild-type CCRF-CEM): ratio of IC50 CEM/dCK- to CCRF-CEM, 24 h
Protocol: as §1, §2, §3

[6] = Homo sapiens, NCI-H460, read-out: IC50 H-460 24 h
[7] = Homo sapiens, MCF7, read-out: IC50 MCF-7 24 h
[8] = Homo sapiens, SF-268, read-out: IC50 SF-268 24 h
[9] = Homo sapiens, CCRF-CEM, read-out: IC50 CCRF-CEM 24 h
[10] = Homo sapiens, NCI-H460, read-out: IC50 H-460 24 h, 24 h drug exposure, wash, another 48 hr, 3H-TdR incorporation at 72 hr
[11] = Homo sapiens, MCF7, read-out: IC50 MCF-7 24 h, 24 h drug exposure, wash, another 48 hr, 3H-TdR incorporation at 72 hr
[12] = Homo sapiens, SF-268, read-out: IC50 SF-268 24 h, 24 h drug exposure, wash, another 48 hr, 3H-TdR incorporation at 72 hr
[13] = Homo sapiens, CCRF-CEM, read-out: IC50 CCRF-CEM 24 h, 24 h drug exposure, wash, another 48 hr, 3H-TdR incorporation at 72 hr
[14] = read-out: IC50 CEM/dCK- 24 h, 24 h drug exposure, wash, another 48 hr, deoxycytidine kinase-deficient CCRF-CEM

## COc1ccc(OC(=O)Nc2ccn([C@@H]3CO[C@H](COC(=O)Oc4ccc(OC)cc4)O3)c(=O)n2)cc1 [Compound 63]
[1]; [6]
  IC50: 0.11 µM
[2]; [7]
  IC50: 0.37 µM
[3]; [8]
  IC50: 0.076 µM
[4]; [9]
  IC50: 0.036 µM
[5]; read-out: IC50 CEM/dCK- 24 h
  IC50: > 100 µM
[5]
  Factor* (Resistance Factor = Ratio of dCK- on Wild-type CCRF-CEM): 2,778

## CCCCC(C)C(=O)OC[C@H]1OC[C@@H](n2ccc(/N=C/N(C)C)nc2=O)O1 (stereo partly drawn) [Compound 64, (2S,4S)-2-(2″-METHYL- HEXANOICOXYMETHYL)-4- (4′-NN- DIMETHYLAMINOMETHYLENE- CYTOSIN-1′-YL)-1,3- DIOXOLANE]
[1]; [10]
  IC50: 0.0017 µM
[2]; [11]
  IC50: 0.0044 µM
[3]; [12]
  IC50: 0.0071 µM
[4]; [13]
  IC50: 0.0018 µM
[5]; [14]
  IC50: 3.6 µM
[5]
  Factor* (Resistance Factor = Ratio of dCK- on Wild-type CCRF-CEM): 2,000

## CCCCC(CC)C(=O)OC[C@H]1OC[C@@H](n2ccc(/N=C/N(C)C)nc2=O)O1 (stereo partly drawn) [Compound 65, (2S,4S)-2-(2″-ETHYL- HEXANOICOXYMETHYL)-4- (4′-N,N- DIMETHYLAMINOMETHYLENE- CYTOSIN-1′-YL)-1,3- DIOXOLANE]
[1]; [10]
  IC50: 0.011 µM
[2]; [11]
  IC50: 0.012 µM
[3]; [12]
  IC50: 0.033 µM
[4]; [13]
  IC50: 0.0039 µM
[5]; [14]
  IC50: 26 µM
[5]
  Factor* (Resistance Factor = Ratio of dCK- on Wild-type CCRF-CEM): 6,667

## CC(C)OC(=O)OCOC[C@H]1OC[C@@H](n2ccc(N)nc2=O)O1.O=C(O)C(F)(F)F [Compound 68, CARBONIC ACID 4-(4- AMINO-2-OXO-2H- PYRIMIDIN-1-YL)- [1,3]DIOXOLAN-2- YLMETHOXYMETHYL ESTER ISOPROPYL ESTER TRIFLUOROACETIC ACID SALT]
[1]; [10]
  IC50: 0.019 µM
[2]; [11]
  IC50: 0.076 µM
[3]; [12]
  IC50: 0.21 µM
[4]; [13]
  IC50: 0.03 µM
[5]; [14]
  IC50: > 100 µM
[5]
  Factor* (Resistance Factor = Ratio of dCK- on Wild-type CCRF-CEM): 3,333

## CC(C(=O)OC[C@H]1OC[C@@H](n2ccc(/N=C/N(C)C)nc2=O)O1)c1ccccc1 (stereo partly drawn) [Compound 70, (2S,4S)-2-(2″- METHYLPHENYLACETOXY)MET HYL-4-(4′-N,N- DIMETHYLAMINOMETHYLENE- CYTOSIN-1′-YL)-1,3- DIOXOLANE]
[1]; [10]
  IC50: 0.036 µM
[2]; [11]
  IC50: 0.047 µM
[3]; [12]
  IC50: 0.27 µM
[4]; [13]
  IC50: 0.0088 µM
[5]; [14]
  IC50: 30 µM
[5]
  Factor* (Resistance Factor = Ratio of dCK- on Wild-type CCRF-CEM): 3,409

## CCCCCOC(=O)Nc1ccn([C@@H]2CO[C@H](CO)O2)c(=O)n1 [Compound 71, [1-(2-HYDROXYMETHYL- [1,3]DIOXOLAN-4-YL)-2- OXO-1,2-DIHYDRO- PYRIMIDIN-4-YL]- CARBAMIC ACID PENTYL ESTER]
[1]; [10]
  IC50: 0.31 µM
[2]; [11]
  IC50: 0.13 µM
[3]; [12]
  IC50: 0.81 µM
[4]; [13]
  IC50: 0.18 µM
[5]; [14]
  IC50: > 100 µM
[5]
  Factor* (Resistance Factor = Ratio of dCK- on Wild-type CCRF-CEM): 556

## COc1ccc(OC(=O)Nc2ccn([C@@H]3CO[C@H](CO)O3)c(=O)n2)cc1 [Compound 73, [1-(2-HYDROXYMETHYL- [1,3]DIOXOLAN-4-YL)-2- OXO-1,2-DIHYDRO- […]-4-YL]- CARBAMIC ACID 4- METHOXY-PHENYL ESTER]
[1]; [6]
  IC50: 0.27 µM
[2]; [7]
  IC50: 0.26 µM
[3]; [8]
  IC50: 0.03 µM
[4]; [9]
  IC50: 0.1 µM
[5]; read-out: IC50 CEM/dCK- 24 h
  IC50: 99 µM
[5]
  Factor* (Resistance Factor = Ratio of dCK- on Wild-type CCRF-CEM): 990

## CC(C)(C)OC(=O)N(CCCCCC(=O)Nc1ccn([C@@H]2CO[C@H](CO)O2)c(=O)n1)Cc1ccccc1 [Compound 77, Benzyl-{5-[1-(2-hydroxymethyl-[1,3]dioxolan-4-yl)-2-oxo-1,2-dihydro-pyrimidin-4-ylcarbamoyl]-pentyl}-carbamic acid tert-butyl ester]
[1]; [10]
  IC50: 0.059 µM
[2]; [11]
  IC50: 0.03 µM
[3]; [12]
  IC50: 0.38 µM
[4]; [13]
  IC50: 0.054 µM
[5]; [14]
  IC50: 74 µM
[5]
  Factor* (Resistance Factor = Ratio of dCK- on Wild-type CCRF-CEM): 1,370

## CC(C)(C)OC(=O)N(CCCCCC(=O)Nc1ccn([C@@H]2CO[C@H](COC(=O)CCCCCN(Cc3ccccc3)C(=O)OC(C)(C)C)O2)c(=O)n1)Cc1ccccc1 [Compound 78, 6-(Benzyl-tert-butoxycarbonyl-amino)-hexanoic acid 4-{4-[6-(benzyl-tert-butoxycarbonyl-amino)-hexanoylamino]-2-oxo-2H-pyrimidin-1-yl}-[1,3]dioxolan-2-ylmethyl ester]
[1]; [10]
  IC50: 0.042 µM
[2]; [11]
  IC50: 0.045 µM
[3]; [12]
  IC50: 0.095 µM
[4]; [13]
  IC50: 0.037 µM
[5]; [14]
  IC50: 13 µM
[5]
  Factor* (Resistance Factor = Ratio of dCK- on Wild-type CCRF-CEM): 351

## N=C(OC[C@H]1OC[C@@H](n2ccc(N)nc2=O)O1)C(Cl)(Cl)Cl [Compound 79]
[1]; [6]
  IC50: 0.12 µM
[2]; [7]
  IC50: 0.17 µM
[3]; [8]
  IC50: 0.16 µM
[4]; [9]
  IC50: 0.014 µM
[5]
  Factor* (Resistance Factor = Ratio of dCK- on Wild-type CCRF-CEM): 4,500

## COC(=O)CCCC(=O)Nc1ccn([C@@H]2CO[C@H](COC(=O)CCCC(=O)OC)O2)c(=O)n1 [Compound 80, PENTANEDIOIC ACID 4-[4- (4-METHOXYCARBONYL- BUTYRYLAMINO)-2-OXO- 2#H!-PYRIMIDIN-1-YL]- [1,3]DIOXOLAN-2- YLMETHYL ESTER METHYL ESTER]
[1]; [10]
  IC50: 1.8 µM
[2]; [11]
  IC50: 0.67 µM
[3]; [12]
  IC50: 3.5 µM
[4]; [13]
  IC50: 0.46 µM
[5]; [14]
  IC50: > 100 µM
[5]
  Factor* (Resistance Factor = Ratio of dCK- on Wild-type CCRF-CEM): 217

## COC(=O)CCCC(=O)Nc1ccn([C@@H]2CO[C@H](CO)O2)c(=O)n1 [Compound 81, 4-[1-(2-HYDROXYMETHYL- [1,3]DIOXOLAN-4-YL)-2- OXO-1,2-DIHYDRO- PYRIMIDIN-4- YLCARBAMOYL]-BUTYRIC ACID METHYL ESTER]
[1]; [10]
  IC50: 3.1 µM
[2]; [11]
  IC50: 2.2 µM
[3]; [12]
  IC50: 7.9 µM
[4]; [13]
  IC50: 1.2 µM
[5]; [14]
  IC50: > 100 µM
[5]
  Factor* (Resistance Factor = Ratio of dCK- on Wild-type CCRF-CEM): 83

## COC(=O)CCCC(=O)OC[C@H]1OC[C@@H](n2ccc(N)nc2=O)O1 [Compound 82, PENTANEDIOIC ACID 4-(4- AMINO-2-OXO-2#H!- PYRIMIDIN-1-YL)- [1,3]DIOXOLAN-2- YLMETHYL ESTER METHYL ESTER]
[1]; [10]
  IC50: 0.17 µM
[2]; [11]
  IC50: 0.12 µM
[3]; [12]
  IC50: 0.3 µM
[4]; [13]
  IC50: 0.053 µM
[5]; [14]
  IC50: > 100 µM
[5]
  Factor* (Resistance Factor = Ratio of dCK- on Wild-type CCRF-CEM): 1,887

## Nc1ccn([C@@H]2CO[C@H](COC(=O)CCCCCNCc3ccccc3)O2)c(=O)n1 [Compound 84, 6-Benzylamino-hexanoic acid 4-(4-amino-2-oxo-2H-pyrimidin-1-yl)-[1,3]dioxolan-2-ylmethyl ester]
[1]; read-out: IC50 H-460 24 h, 24 h drug exposure, wash, another 48 hr, 3H-TdR incorporation at 72 hr
  IC50: 0.014 µM
[2]; read-out: IC50 MCF-7 24 h, 24 h drug exposure, wash, another 48 hr, 3H-TdR incorporation at 72 hr
  IC50: 0.0094 µM
[3]; read-out: IC50 SF-268 24 h, 24 h drug exposure, wash, another 48 hr, 3H-TdR incorporation at 72 hr
  IC50: 0.36 µM
[4]; read-out: IC50 CCRF-CEM 24 h, 24 h drug exposure, wash, another 48 hr, 3H-TdR incorporation at 72 hr
  IC50: 0.012 µM
[5]
  Factor* (Resistance Factor = Ratio of dCK- on Wild-type CCRF-CEM): 5,000

## Nc1ccn([C@@H]2CO[C@H](CO[C@@H]3O[C@H](CO)[C@@H](O)[C@H]3O)O2)c(=O)n1.O=C(O)C(F)(F)F [Compound 85, 4-AMINO-1-[2-(3,4- DIHYDROXY-5- HYDROXYMETHYL- TETRAHYDROFURAN-2- YLOXYMETHYL)- [1,3]DIOXOLAN-4-YL]- 1HPYIMIDIN-2-ONE, TRIFLUOROACETIC ACID SALT]
[1]; [10]
  IC50: 0.69 µM
[2]; [11]
  IC50: 6.8 µM
[3]; [12]
  IC50: 16 µM
[4]; [13]
  IC50: 2.6 µM
[5]; [14]
  IC50: > 100 µM
[5]
  Factor* (Resistance Factor = Ratio of dCK- on Wild-type CCRF-CEM): 38

## CCCCC(C)C(=O)OC[C@H]1OC[C@@H](n2ccc(N)nc2=O)O1.Cl (stereo partly drawn) [Compound 86, (2S,4S)-2-(2″-METHYL- HEXANOICOXYMETHYL)-4- CYTOSIN-1′-YL-1,3- DIOXOLANE HYDROCHLORIDE]
[1]; [10]
  IC50: 0.002 µM
[2]; [11]
  IC50: 0.0019 µM
[3]; [12]
  IC50: 0.013 µM
[4]; [13]
  IC50: 0.0011 µM
[5]; [14]
  IC50: 4 µM
[5]
  Factor* (Resistance Factor = Ratio of dCK- on Wild-type CCRF-CEM): 3,636
